The values that follow come from patent US20250320193A1, “OXOISOINDOLINYL SUBSTITUTED PIPERIDINEDIONE DERIVATIVE AND USE THEREOF” (GLUETACS THERAPEUTICS (SHANGHAI) CO., LTD., priority 2022, published 2025).

Experiment [1] concerns the target human Cereblon WT GST-tagged protein (Homo sapiens (Human), UniProt Q96SW2). The experiment can be described thus: CRBN-binding affinity, HTRF (CEREBLON BINDING kit, CISBIO). As to conditions: HTRF inhibitory activity. In short, it runs like this:
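Compounds were mixed with GST-tagged human Cereblon WT protein, then with Thalidomide-Red tracer and GST Eu antibody, and binding was read by HTRF. Inhibition rate was calculated from 620 nm emission relative to blank control wells (no protein) and solvent control wells.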

In the next experiment the target is GSPT1 (Homo sapiens (Human), UniProt P15170+Q96SW2). The experiment can be described thus: Western blot, substrate protein expression in hPBMC: GSPT1. As to conditions: for substrate protein remaining % GSPT1: hPBMC, compound 500 nM, 24 hours, Western blot; for concentration at which GSPT1 protein was clearly/significantly degraded (Western blot, FIG. 1): hPBMCs. Type of experiment: cell-based. Put shortly: (§1)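 hPBMC, 1×10^6 cells/mL, 24 h compound exposure; RIPA lysis, BCA protein assay, SDS-PAGE, NC membrane immunoblot. Densitometry vs internal control → % protein remaining; degradation % = 100% − remaining; DC50 = conc. at 50% of DMSO band signal.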
GSPT1, sequence (P15170 whole entry): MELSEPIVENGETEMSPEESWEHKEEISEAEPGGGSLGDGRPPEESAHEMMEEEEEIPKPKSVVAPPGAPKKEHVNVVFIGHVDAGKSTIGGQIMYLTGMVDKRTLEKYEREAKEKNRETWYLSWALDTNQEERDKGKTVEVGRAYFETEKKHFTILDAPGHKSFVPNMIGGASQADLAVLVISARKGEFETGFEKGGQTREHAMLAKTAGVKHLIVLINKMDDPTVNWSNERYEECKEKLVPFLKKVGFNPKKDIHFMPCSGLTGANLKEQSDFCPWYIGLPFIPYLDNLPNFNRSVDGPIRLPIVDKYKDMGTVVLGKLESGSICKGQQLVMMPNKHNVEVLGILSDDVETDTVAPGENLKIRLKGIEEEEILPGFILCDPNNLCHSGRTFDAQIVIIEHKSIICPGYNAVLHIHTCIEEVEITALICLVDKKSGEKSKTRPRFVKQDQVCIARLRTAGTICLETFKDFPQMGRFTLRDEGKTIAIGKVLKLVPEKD
GSPT1, sequence (Q96SW2 whole entry): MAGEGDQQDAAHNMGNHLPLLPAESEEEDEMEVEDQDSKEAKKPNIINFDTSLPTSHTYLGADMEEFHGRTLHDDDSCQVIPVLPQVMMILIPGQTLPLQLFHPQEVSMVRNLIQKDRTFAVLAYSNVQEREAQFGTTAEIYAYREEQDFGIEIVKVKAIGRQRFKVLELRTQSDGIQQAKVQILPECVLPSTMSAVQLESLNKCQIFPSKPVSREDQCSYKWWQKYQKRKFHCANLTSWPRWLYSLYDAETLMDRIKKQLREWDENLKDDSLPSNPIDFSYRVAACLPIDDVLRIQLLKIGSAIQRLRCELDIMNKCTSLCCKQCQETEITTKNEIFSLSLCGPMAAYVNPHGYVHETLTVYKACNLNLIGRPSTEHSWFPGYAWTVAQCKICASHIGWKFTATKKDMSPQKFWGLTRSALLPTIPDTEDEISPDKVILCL
GSPT1, sequence (Q16531 whole entry partner): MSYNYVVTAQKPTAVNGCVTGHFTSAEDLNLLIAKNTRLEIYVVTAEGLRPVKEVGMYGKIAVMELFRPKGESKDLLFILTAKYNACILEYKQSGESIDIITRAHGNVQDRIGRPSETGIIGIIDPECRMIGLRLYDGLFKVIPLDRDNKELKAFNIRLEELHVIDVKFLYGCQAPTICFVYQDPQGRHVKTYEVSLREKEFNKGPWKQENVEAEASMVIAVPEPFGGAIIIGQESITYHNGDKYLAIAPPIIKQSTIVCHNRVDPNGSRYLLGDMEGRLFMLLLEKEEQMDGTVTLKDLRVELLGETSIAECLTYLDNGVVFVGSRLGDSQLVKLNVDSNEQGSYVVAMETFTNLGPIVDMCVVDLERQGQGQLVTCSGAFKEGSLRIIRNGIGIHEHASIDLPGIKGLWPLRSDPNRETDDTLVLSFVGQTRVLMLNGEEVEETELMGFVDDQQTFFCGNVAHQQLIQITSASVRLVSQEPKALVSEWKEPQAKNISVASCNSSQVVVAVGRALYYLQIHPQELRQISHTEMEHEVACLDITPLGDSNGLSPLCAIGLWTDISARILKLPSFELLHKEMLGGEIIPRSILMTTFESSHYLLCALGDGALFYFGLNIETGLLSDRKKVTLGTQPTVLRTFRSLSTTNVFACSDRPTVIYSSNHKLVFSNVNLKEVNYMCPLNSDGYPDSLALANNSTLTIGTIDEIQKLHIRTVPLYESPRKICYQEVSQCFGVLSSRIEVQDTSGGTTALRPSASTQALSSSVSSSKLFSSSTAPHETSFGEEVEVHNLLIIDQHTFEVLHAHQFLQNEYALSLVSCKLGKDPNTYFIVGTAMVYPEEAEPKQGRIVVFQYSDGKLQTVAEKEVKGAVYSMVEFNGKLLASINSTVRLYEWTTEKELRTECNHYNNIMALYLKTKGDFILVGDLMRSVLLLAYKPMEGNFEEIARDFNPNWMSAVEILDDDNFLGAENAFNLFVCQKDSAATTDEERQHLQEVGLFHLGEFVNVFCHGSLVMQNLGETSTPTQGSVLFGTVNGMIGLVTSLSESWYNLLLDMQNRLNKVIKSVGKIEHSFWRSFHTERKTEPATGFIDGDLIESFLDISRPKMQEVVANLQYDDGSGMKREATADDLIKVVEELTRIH

The next experiment deals with IKZF1 (Homo sapiens (Human), UniProt Q13422+Q96SW2). The experiment is described as follows: Western blot, substrate protein expression in hPBMC: IKZF1. Conditions: for substrate protein remaining % IKZF1: hPBMC, compound 500 nM, 24 hours, Western blot. The class given is cell-based. In short, it runs like this: as §1
IKZF1, sequence (Q13422 whole entry): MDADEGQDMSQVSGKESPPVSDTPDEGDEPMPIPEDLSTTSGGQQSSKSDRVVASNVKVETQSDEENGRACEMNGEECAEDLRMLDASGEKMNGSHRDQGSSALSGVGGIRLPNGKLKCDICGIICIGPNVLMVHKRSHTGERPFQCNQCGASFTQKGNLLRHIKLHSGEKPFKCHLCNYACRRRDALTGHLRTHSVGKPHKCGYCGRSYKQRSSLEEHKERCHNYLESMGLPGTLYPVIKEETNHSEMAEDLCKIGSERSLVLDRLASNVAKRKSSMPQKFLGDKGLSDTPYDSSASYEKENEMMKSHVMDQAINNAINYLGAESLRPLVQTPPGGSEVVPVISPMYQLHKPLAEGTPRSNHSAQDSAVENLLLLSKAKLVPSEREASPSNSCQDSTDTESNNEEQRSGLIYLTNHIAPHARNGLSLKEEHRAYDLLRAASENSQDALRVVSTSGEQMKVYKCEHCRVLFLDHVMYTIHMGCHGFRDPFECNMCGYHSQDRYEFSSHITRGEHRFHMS
IKZF1, sequence (Q96SW2 whole entry): as the sequence (Q96SW2 whole entry) above
IKZF1, sequence (Q16531 whole entry partner): as the sequence (Q16531 whole entry partner) above
A further experiment has as its target IKZF3 (Homo sapiens (Human), UniProt Q96SW2+Q9UKT9). The experiment is described as follows: Western blot, substrate protein expression in hPBMC: IKZF3. Type of experiment: cell-based. As to conditions: for substrate protein remaining % IKZF3: hPBMC, compound 500 nM, 24 hours, Western blot. In short, it runs like this: as §1

human Cereblon WT GST-tagged protein, sequence (Q96SW2 whole entry): as the sequence (Q96SW2 whole entry) above
IKZF3, sequence (Q9UKT9 whole entry): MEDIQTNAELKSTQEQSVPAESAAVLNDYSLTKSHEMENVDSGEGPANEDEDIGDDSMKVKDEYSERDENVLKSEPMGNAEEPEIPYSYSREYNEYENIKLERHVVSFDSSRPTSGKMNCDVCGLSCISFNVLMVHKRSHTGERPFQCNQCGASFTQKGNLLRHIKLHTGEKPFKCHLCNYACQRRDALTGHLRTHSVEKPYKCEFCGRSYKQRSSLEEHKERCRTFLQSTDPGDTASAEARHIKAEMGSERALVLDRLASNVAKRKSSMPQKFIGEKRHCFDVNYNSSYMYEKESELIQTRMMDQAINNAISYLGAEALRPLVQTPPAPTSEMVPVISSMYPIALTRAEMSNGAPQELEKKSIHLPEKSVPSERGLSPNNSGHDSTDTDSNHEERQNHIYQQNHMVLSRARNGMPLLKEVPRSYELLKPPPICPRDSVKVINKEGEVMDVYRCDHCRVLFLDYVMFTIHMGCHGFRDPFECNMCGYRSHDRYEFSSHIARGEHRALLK
IKZF3, sequence (Q96SW2 whole entry): as the sequence (Q96SW2 whole entry) above
IKZF3, sequence (Q16531 whole entry partner): as the sequence (Q16531 whole entry partner) above

Regarding `CC1CN(C(c2ccccc2)c2ccccc2)CC(C)N1Cc1cc2c(cc1F)C(=O)N(C1CCC(=O)NC1=O)C2` (stereo not shown) [GT-03873, 3-(5-((4-benzhydryl-2,6-dimethylpiperazin-1-yl)methyl)-6-fluoro-1-oxoisoindolin-2-yl)piperidine-2,6-dione], in experiment [1], the IC50 is less than 500 nM. Besides, the “substrate protein remaining % GSPT1” value on GSPT1 was “A (A represents 0% ≤ substrate protein remaining % ≤ 50%)”. Further, the “substrate protein remaining % IKZF1” value on IKZF1 is “A (A represents 0% ≤ substrate protein remaining % ≤ 50%)”. The “substrate protein remaining % IKZF3” value at IKZF3 is on record as “B (B represents substrate protein remaining % > 50%)”.

In experiment [1], `O=C1CCC(N2Cc3cc(CN4CC5CCC4CN5C(c4ccccc4)c4ccccc4)ccc3C2=O)C(=O)N1` (stereo not shown) [GT-03993, 3-(5-((5-benzhydryl-2,5-diazabicyclo[2.2.2]octan-2-yl)methyl)-1-oxoisoindolin-2-yl)piperidine-2,6-dione] came in with a half-inhibitory concentration (IC50) of less than 500 nM. Further, the “substrate protein remaining % GSPT1” value on GSPT1 is “A (A represents 0% ≤ substrate protein remaining % ≤ 50%)”. The “substrate protein remaining % IKZF1” value on IKZF1 is listed as “B (B represents substrate protein remaining % > 50%)”. Moreover, on IKZF3, the “substrate protein remaining % IKZF3” value is “A (A represents 0% ≤ substrate protein remaining % ≤ 50%)”.

With `O=C1CCC(N2Cc3cc(CN4CCCN(C(c5ccccc5)c5ccccc5)CC4)ccc3C2=O)C(=O)N1` (stereo not shown) [GT-03994, 3-(5-((4-benzhydryl-1,4-diazepan-1-yl)methyl)-1-oxoisoindolin-2-yl)piperidine-2,6-dione], the IC50 in experiment [1] was less than 500 nM. Besides, the “substrate protein remaining % GSPT1” value at GSPT1 was “A (A represents 0% ≤ substrate protein remaining % ≤ 50%)”. The “substrate protein remaining % IKZF1” value at IKZF1 is given as “B (B represents substrate protein remaining % > 50%)”. For the same molecule, the “substrate protein remaining % IKZF3” value on IKZF3 was “B (B represents substrate protein remaining % > 50%)”.

As for `O=C1CCC(N2Cc3c(ccc(CN4CC5CCC4CN5C(c4ccccc4)c4ccccc4)c3F)C2=O)C(=O)N1` (stereo not shown) [GT-04163, 3-(5-((5-benzhydryl-2,5-diazabicyclo[2.2.2]octan-2-yl)methyl)-4-fluoro-1-oxoisoindolin-2-yl)piperidine-2,6-dione], the IC50 in experiment [1] was in the range of 500 to 1000 nM. In addition, the “substrate protein remaining % GSPT1” value at GSPT1 was “A (A represents 0% ≤ substrate protein remaining % ≤ 50%)”. Besides, the “substrate protein remaining % IKZF1” value at IKZF1 is reported as “B (B represents substrate protein remaining % > 50%)”. In addition, the “substrate protein remaining % IKZF3” value on IKZF3 was “A (A represents 0% ≤ substrate protein remaining % ≤ 50%)”.

In experiment [1], `O=C1CCC(N2Cc3c(ccc(CN4CCCN(C(c5ccccc5)c5ccccc5)CC4)c3F)C2=O)C(=O)N1` (stereo not shown) [GT-04164, 3-(5-((4-benzhydryl-1,4-diazepan-1-yl)methyl)-4-fluoro-1-oxoisoindolin-2-yl)piperidine-2,6-dione] showed an IC50 of 500 to 1000 nM. Further, the “substrate protein remaining % GSPT1” value on GSPT1 is listed as “A (A represents 0% ≤ substrate protein remaining % ≤ 50%)”. Also, at IKZF1, the “substrate protein remaining % IKZF1” value is given as “B (B represents substrate protein remaining % > 50%)”. Besides, the “substrate protein remaining % IKZF3” value at IKZF3 is listed as “B (B represents substrate protein remaining % > 50%)”.

In experiment [1], `O=C1CCC(N2Cc3cc(CN4CCN(C(c5ccccn5)c5ccccn5)CC4)ccc3C2=O)C(=O)N1` (stereo not shown) [GT-04383, 3-(5-((4-(di(pyridin-2-yl)methyl)piperazin-1-yl)methyl)-1-oxoisoindolin-2-yl)piperidine-2,6-dione] registered an IC50 of less than 500 nM. For the same molecule, on GSPT1, the “substrate protein remaining % GSPT1” value is “A (A represents 0% ≤ substrate protein remaining % ≤ 50%)”. Also, the “substrate protein remaining % IKZF1” value at IKZF1 is given as “B (B represents substrate protein remaining % > 50%)”. Also, at IKZF3, the “substrate protein remaining % IKZF3” value is on record as “B (B represents substrate protein remaining % > 50%)”.

Regarding `O=C1CCC(N2Cc3cc(CN4CCN(C(c5ccccn5)c5ccccn5)CC4)c(F)cc3C2=O)C(=O)N1` (stereo not shown) [GT-04384, 3-(5-((4-(di(pyridin-2-yl)methyl)piperazin-1-yl)methyl)-6-fluoro-1-oxoisoindolin-2-yl)piperidine-2,6-dione], the concentration for half-maximal inhibition (IC50) in experiment [1] lay within 500 to 1000 nM. At GSPT1, the “substrate protein remaining % GSPT1” value is “A (A represents 0% ≤ substrate protein remaining % ≤ 50%)”. Besides, the “substrate protein remaining % IKZF1” value at IKZF1 was “B (B represents substrate protein remaining % > 50%)”. The “substrate protein remaining % IKZF3” value at IKZF3 is listed as “B (B represents substrate protein remaining % > 50%)”.

The molecule `O=C1CCC(N2Cc3c(CN4CCN(C(c5ccccc5)c5ccncc5)CC4)cccc3C2=O)C(=O)N1` (stereo not shown) [GT-04945, 3-(1-oxo-4-((4-(phenyl(pyridin-4-yl)methyl)piperazin-1-yl)methyl)isoindolin-2-yl)piperidine-2,6-dione] came in with an IC50 in experiment [1] of 500 to 1000 nM. The “substrate protein remaining % GSPT1” value on GSPT1 is “A (A represents 0% ≤ substrate protein remaining % ≤ 50%)”. Further, at IKZF1, the “substrate protein remaining % IKZF1” value is recorded as “B (B represents substrate protein remaining % > 50%)”. The “substrate protein remaining % IKZF3” value at IKZF3 is listed as “B (B represents substrate protein remaining % > 50%)”.

In experiment [1], `O=C1CCC(N2Cc3c(CN4CCC(N(c5ccccc5)c5ccccn5)CC4)cccc3C2=O)C(=O)N1` (stereo not shown) [GT-04948, 3-(1-oxo-4-((4-(phenyl(pyridin-2-yl)amino)piperidin-1-yl)methyl)isoindolin-2-yl)piperidine-2,6-dione] returned an IC50 of 500 to 1000 nM. At GSPT1, the “substrate protein remaining % GSPT1” value is recorded as “A (A represents 0% ≤ substrate protein remaining % ≤ 50%)” and the “concentration at which GSPT1 protein was clearly/significantly degraded (Western blot, FIG. 1)” value is less than 500 nM. Moreover, the “substrate protein remaining % IKZF1” value on IKZF1 is listed as “B (B represents substrate protein remaining % > 50%)”. Besides, the “substrate protein remaining % IKZF3” value on IKZF3 was “B (B represents substrate protein remaining % > 50%)”.

Molecule `O=C1CCC(N2Cc3c(CN4CCC(N(c5ccccc5)c5ccccc5)CC4)cccc3C2=O)C(=O)N1` (stereo not shown) [GT-04992, 3-(4-((4-(diphenylamino)piperidin-1-yl)methyl)-1-oxoisoindolin-2-yl)piperidine-2,6-dione] showed an IC50 in experiment [1] of less than 500 nM. At GSPT1, the “substrate protein remaining % GSPT1” value is given as “A (A represents 0% ≤ substrate protein remaining % ≤ 50%)”. The “substrate protein remaining % IKZF1” value at IKZF1 is “B (B represents substrate protein remaining % > 50%)”. Moreover, the “substrate protein remaining % IKZF3” value at IKZF3 is recorded as “B (B represents substrate protein remaining % > 50%)”.

`O=C1CCC(N2Cc3cc(CCCN4CCN(C(c5ccccc5)c5ccccc5)CC4)ccc3C2=O)C(=O)N1` (stereo not shown) [GT-05688, 3-(5-(3-(4-benzhydrylpiperazin-1-yl)propyl)-1-oxoisoindolin-2-yl)piperidine-2,6-dione]: in experiment [1], the IC50 lay within 1000 to 1900 nM. In addition, on GSPT1, the “substrate protein remaining % GSPT1” value is recorded as “B (B represents substrate protein remaining % > 50%)”. At IKZF1, the “substrate protein remaining % IKZF1” value is recorded as “A (A represents 0% ≤ substrate protein remaining % ≤ 50%)”. Besides, the “concentration at which IKZF1 protein was significantly degraded (Western blot, FIG. 1)” value at IKZF1 (hPBMCs) is reported as “below 50 nM”. Moreover, the “substrate protein remaining % IKZF3” value at IKZF3 is recorded as “A (A represents 0% ≤ substrate protein remaining % ≤ 50%)”. The “concentration at which IKZF3 protein was significantly degraded (Western blot, FIG. 1)” value on IKZF3 (hPBMCs) is reported as “below 50 nM”.

Consider `O=C1CCC(N2Cc3cc(C(=O)N4CCN(C(c5ccccc5)c5ccccc5)CC4)ccc3C2=O)C(=O)N1` (stereo not shown) [GT-05689, 3-(5-(4-benzhydrylpiperazine-1-carbonyl)-1-oxoisoindolin-2-yl)piperidine-2,6-dione], for which the IC50 in experiment [1] lay in the range of 500 to 1000 nM. In addition, on GSPT1, the “substrate protein remaining % GSPT1” value is “A (A represents 0% ≤ substrate protein remaining % ≤ 50%)” and the “concentration at which GSPT1 protein was clearly/significantly degraded (Western blot, FIG. 1)” value is given as “below 50 nM”. Also, the “substrate protein remaining % IKZF1” value at IKZF1 is reported as “B (B represents substrate protein remaining % > 50%)”. Moreover, the “substrate protein remaining % IKZF3” value on IKZF3 is “B (B represents substrate protein remaining % > 50%)”.
